Experiments:
SARS-CoV-2 [1] = experiment: Pretreatment screening, SARS-CoV-2 plaque numbers on Vero E6 cells; format: cell-based
[2] = Aqueous stability of artemisinin in presence of additives (1H NMR); format: physicochemical; details: 93° C. for 90 minutes
Description: Two solvents were tested, tap water and premade black coffee, and glucose (1 equivalent) was tested as a reductant. All mixtures were heated to 93° C. for 90 minutes in 10 mL glass vials open to the atmosphere. Halfway through heating, 1-2 mL of tap water was added to compensate for evaporation. Following heating, 2 mL ethyl acetate was added, and the biphasic solution was dried using a rotary evaporator with water bath at 40° C. The flask was further dried for three hours under high vacuum. All samples were dissolved in CDCl3 containing 0.5 equivalents of an internal standard (1,2,4,5-tetramethylbenzene) and ^1H NMR performed.

SARS-CoV-2 [3] = experiment: SARS-CoV-2 induced cytopathic effect (CPE) in Vero E6 cells, MTS method; format: cell-based; details: 72 h

For `C[C@@H]1CC[C@H]2[C@@H](C)C(=O)O[C@@H]3O[C@@]4(C)CC[C@@H]1[C@]32OO4` [artemisinin], the “# of Plaques” value (SARS-CoV-2 [1]; pretreatment 15 min, dilution 100) was 78, the “# of Plaques” value (SARS-CoV-2 [1]; pretreatment 15 min, dilution 1,000) was 104 and the “# of Plaques” value (SARS-CoV-2 [1]; pretreatment 15 min, dilution 10,000) was 109. The “plaques observed divided by average of negative control multiplied by 100” value (“plaques observed divided by average” below) (SARS-CoV-2 [1]; pretreatment 15 min, sample 0.22 μg/mL) was 95.63, the “plaques observed divided by average” value (SARS-CoV-2 [1]; pretreatment 15 min, sample 2.2 μg/mL) was 84.06 and the “plaques observed divided by average” value (SARS-CoV-2 [1]; pretreatment 15 min, sample 22 μg/mL) was 80.21. For the same compound, the “plaques observed divided by average” value (SARS-CoV-2 [1]; pretreatment 15 min, sample 220 μg/mL) was 60.15, the “# of Plaques” value (SARS-CoV-2 [1]; pretreatment 30 min, dilution 100) was 88 and the “# of Plaques” value (SARS-CoV-2 [1]; pretreatment 30 min, dilution 1,000) was 100. The “# of Plaques” value (SARS-CoV-2 [1]; pretreatment 30 min, dilution 10,000) was 102, the “plaques observed divided by average” value (SARS-CoV-2 [1]; pretreatment 30 min, sample 0.22 μg/mL) was 104.88 and the “plaques observed divided by average” value (SARS-CoV-2 [1]; pretreatment 30 min, sample 2.2 μg/mL) was 78.66. The “plaques observed divided by average” value (SARS-CoV-2 [1]; pretreatment 30 min, sample 22 μg/mL) was 78.66, the “plaques observed divided by average” value (SARS-CoV-2 [1]; pretreatment 30 min, sample 220 μg/mL) was 67.87 and the “# of Plaques” value (SARS-CoV-2 [1]; pretreatment 60 min, dilution 100) was 96. The “# of Plaques” value (SARS-CoV-2 [1]; pretreatment 60 min, dilution 1,000) was 120, the “# of Plaques” value (SARS-CoV-2 [1]; pretreatment 60 min, dilution 10,000) was 100 and the “plaques observed divided by average” value (SARS-CoV-2 [1]; pretreatment 60 min, sample 0.22 μg/mL) was 95.63. For the same compound, the “plaques observed divided by average” value (SARS-CoV-2 [1]; pretreatment 60 min, sample 2.2 μg/mL) was 77.12, the “plaques observed divided by average” value (SARS-CoV-2 [1]; pretreatment 60 min, sample 22 μg/mL) was 92.54 and the “plaques observed divided by average” value (SARS-CoV-2 [1]; pretreatment 60 min, sample 220 μg/mL) was 74.04. For the same compound, the “# of Plaques” value (SARS-CoV-2 [1]; pretreatment 120 min, dilution 100) was 106, the “plaques observed divided by average” value (SARS-CoV-2 [1]; pretreatment 120 min, sample 0.22 μg/mL) was 103.34 and the “plaques observed divided by average” value (SARS-CoV-2 [1]; pretreatment 120 min, sample 2.2 μg/mL) was 95.63. The “plaques observed divided by average” value (SARS-CoV-2 [1]; pretreatment 120 min, sample 22 μg/mL) was 103.34, the “plaques observed divided by average” value (SARS-CoV-2 [1]; pretreatment 120 min, sample 220 μg/mL) was 81.75 and the loss of artemisinin ([2]; premade black coffee + glucose (1 equivalent)) was 19%. The degradation of artemisinin ([2]; premade black coffee) was 17% and the loss of artemisinin ([2]; tap water + glucose (1 equivalent)) was 32%.

In the case of `C[C@H]1[C@H](OC(=O)CCC(=O)O)O[C@@H]2O[C@@]3(C)CC[C@H]4[C@H](C)CC[C@@H]1[C@@]24OO3` [artesunate], the “EC50 (inhibition of virus-induced CPE)” value (SARS-CoV-2 [3]) is reported as “sufficiently low”.
